The values that follow come from US11390631B1, “Benzodiazepine derivatives as RSV inhibitors” (priority 2015, dated 2022).

Each structure is given as a SMILES string. Where two headings read alike, the source gives them in different places.

The subject of the experiment is Human RSV-A (“Long” strain). Briefly: RSV-A assay: inhibition of cytopathic effect in Hep-2 cells, ATPlite readout. The note with it: read-out: Human RSV-A (“Long” strain) EC50. In kind it is cell-based, Human respiratory syncytial virus (HRSV). The method, boiled down: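 Cytopathic-effect protection was read as ATP content (ATPlite luminescence) after a 5-day incubation. Setup: Hep-2 cells at 8,000 per well, RSV-A Long at MOI 0.1, 2-fold serial compound dilutions in duplicate. Cytotoxicity (CC50) was measured on an identical uninfected plate run in parallel.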
For orientation: Cytopathic effects are the visible damage that an infection or toxin causes in cultured cells.

Where [1] appears, read: human respiratory syncytial virus, HEp-2, 120 h.
Where [2] appears, read: Hep-2 cells, MOI 0.1, 5-day incubation, ATPlite.

Take `Cc1nc(-c2nnc(N[C@H]3N=C(c4ccccc4)c4ccccc4NC3=O)o2)c(Cl)s1` [Example 344]: the concentration for a half-maximal effect (EC50) (as a rule, the concentration giving half of the maximal effect) under setting [1] is above 800 nM.
Take `Cc1nc(-c2nnc(N[C@H]3N=C(c4ccccc4)c4ccccc4NC3=O)o2)c(C2=CCOCC2)s1` [Example 345, (S)-3-((5-(5-(3,6-dihydro-2H-pyran-4-yl)-2-methylthiazol-4-yl)-1,3,4-oxadiazol-2-yl)amino)-5-phenyl-1,3-dihydro-2H-benzo[e][1,4]diazepin-2-one]: the EC50 under setting [1] was below 400 nM.
On to `Cc1nc(-c2nnc(N[C@H]3N=C(c4ccccc4)c4ccccc4NC3=O)o2)c(C2CCOCC2)s1` [Example 346, (S)-3-((5-(2-methyl-5-(tetrahydro-2H-pyran-4-yl)thiazol-4-yl)-1,3,4-oxadiazol-2-yl)amino)-5-phenyl-1,3-dihydro-2H-benzo[e][1,4]diazepin-2-one], for which the EC50 under setting [1] is below 400 nM.
Turning to `O=C1Nc2ccccc2C(c2ccccc2)=N[C@@H]1Nc1nnc(-c2ncsc2C2=CCOCC2)o1` [Example 347], under setting [1], the EC50 was below 400 nM.
Consider `O=C1Nc2ccccc2C(c2ccccc2)=N[C@@H]1Nc1nnc(-c2occc2N2CCOCC2)o1` [Example 348], for which, under setting [1], the EC50 is below 400 nM.
As to `O=C1Nc2ccccc2C(c2ccccc2)=N[C@@H]1Nc1nnc(-c2ccnn2-c2ccccc2)o1` [Example 349], the EC50 under setting [1] is above 800 nM.
On the same count and under the same terms, under `O=C1Nc2ccccc2C(c2ccccc2)=N[C@@H]1Nc1nnc(-c2cnn(-c3ccccc3)c2)o1` [Example 350] stands 400 to 800 nM; under `O=C1Nc2ccccc2C(c2ccccc2)=NC1Nc1nnc(-c2ccccc2C2=CCOCC2)o1` (stereo not shown) [Example 353, 3-((5-(2-(3,6-dihydro-2H-pyran-4-yl)phenyl)-1,3,4-oxadiazol-2-yl)amino)-5-phenyl-1,3-dihydro-2H-benzo[e][1,4]diazepin-2-one], above 800 nM; under `O=C1Nc2ccccc2C(c2ccccc2)=NC1Nc1nnc(-c2ccccc2C2CCOCC2)o1` (stereo not shown) [Example 354], above 800 nM.
`O=C1Nc2c(F)cccc2C(c2ccccc2)=N[C@H]1Nc1nnc(-c2ccccc2N2CCOCC2)o1` [Example 355b]: under setting [1], the 50% effective concentration (EC50) is above 800 nM.
Take `O=C1Nc2c(F)cccc2C(c2ccccc2)=NC1Nc1nnc(-c2ccc(N3CCOCC3)cc2)o1` (stereo not shown) [Example 356]: the concentration for a half-maximal effect (EC50) under setting [1] is 400 to 800 nM.
Consider `N#Cc1cnc(-c2nnc(N[C@H]3N=C(c4ccccc4)c4cccc(F)c4NC3=O)o2)c(N2CCOCC2)c1` [Example 361], for which the EC50 under setting [1] is below 400 nM.
Regarding `O=C1Nc2c(Cl)cccc2C(c2ccccc2)=NC1Nc1nnc(-c2ccccc2N2CCOCC2)o1` (stereo not shown) [Example 362], under setting [1], the concentration for a half-maximal effect (EC50) was above 800 nM.
As for `O=C1Nc2ccccc2C(c2ccccc2)=NC1Nc1nnc(-c2ccc(F)cc2)[nH]1` (stereo not shown) [Example 363], the concentration for a half-maximal effect (EC50) under setting [1] is above 800 nM.
`N#Cc1ccc(-c2nnc(NC3N=C(c4ccccc4)c4ccccc4NC3=O)[nH]2)cc1` (stereo not shown) [Example 365]: the concentration giving a half-maximal response (EC50) under setting [1] was in the range of 400 to 800 nM.
In the case of `O=C1Nc2ccccc2C(c2ccccc2)=NC1Nc1nnc(-c2ccncc2)[nH]1` (stereo not shown) [Example 366], the half-maximal effective concentration (EC50) under setting [1] was above 800 nM.
As to `O=C1Nc2ccccc2C(c2ccccc2)=NC1Nc1nnc(-c2ccccc2N2CCOCC2)[nH]1` (stereo not shown) [Example 367], the concentration for a half-maximal effect (EC50) under setting [1] is above 800 nM.
`N#Cc1ccc(-c2cnc(NC3N=C(c4ccccc4)c4ccccc4NC3=O)o2)cc1` (stereo not shown) [Example 368]: the EC50 under setting [1] lay in the range of 400 to 800 nM.
As to `O=C1Nc2ccccc2C(c2ccccc2)=NC1Nc1ncc(-c2ccc(F)cc2)o1` (stereo not shown) [Example 369], the EC50 under setting [1] is above 800 nM.
For `O=C1Nc2ccccc2C(c2ccccc2)=NC1Nc1ncc(-c2ccc(Br)cc2)o1` (stereo not shown) [Example 370], the EC50 under setting [1] is above 800 nM.
Take `O=C1Nc2ccccc2C(c2ccccc2)=NC1Nc1ncc(-c2ccccc2)cn1` (stereo not shown) [Example 371]: the concentration giving a half-maximal response (EC50) under setting [1] is above 800 nM.
Take `O=C1Nc2ccccc2C(c2ccccc2)=NC1Nc1nnc(C2CC2)[nH]1` (stereo not shown) [Example 372]: under setting [1], the concentration for a half-maximal effect (EC50) is above 800 nM.
Regarding `O=C1Nc2ccccc2C(c2ccccc2)=NC1Nc1cnc(-c2ccc(F)cc2)cn1` (stereo not shown) [Example 373], under setting [1], the EC50 was above 800 nM.
As for `O=C1Nc2ccccc2C(c2ccccc2)=NC1Nc1ccc(-c2ccc(F)cc2)nn1` (stereo not shown) [Example 374], the EC50 under setting [1] is above 800 nM.
Still for that read-out and setting: as for `O=C1Nc2ccccc2C(c2ccccc2)=NC1Nc1ccc(-c2ccncc2)nn1` (stereo not shown) [Example 375], the figure is above 800 nM.
Take `COc1ccc(-c2ccc(NC3N=C(c4ccccc4)c4ccccc4NC3=O)nn2)cc1` (stereo not shown) [Example 376]: the EC50 under setting [1] is above 800 nM.
For the compound `O=C1Nc2ccccc2C(c2ccccc2)=NC1Nc1ccc(-c2ccccc2N2CCOCC2)nn1` (stereo not shown) [Example 378], under setting [1], the EC50 was above 800 nM.
Turning to `O=C1Nc2ccccc2C(c2ccccc2F)=NC1Nc1nnc(-c2ccc(F)cc2)o1` (stereo not shown) [Example 379], the EC50 under setting [1] is above 800 nM.
Take `O=C1Nc2ccccc2C(c2cccc(F)c2)=NC1Nc1nnc(-c2ccc(F)cc2)o1` (stereo not shown) [Example 380]: under setting [1], the EC50 fell in the range of 400 to 800 nM.
`N#Cc1cccc(C2=NC(Nc3nnc(-c4ccc(F)cc4)o3)C(=O)Nc3ccccc32)c1` (stereo not shown) [Example 381]: the concentration giving a half-maximal response (EC50) under setting [1] is above 800 nM.
On the same count and under the same terms, under `O=C1Nc2ccccc2C(c2ccc(F)cc2)=NC1Nc1nnc(-c2ccc(F)cc2)o1` (stereo not shown) [Example 382] stands above 800 nM; under `O=C1Nc2ccccc2C(c2ccccc2)=N[C@@H]1Nc1nnc(-c2cc(C(F)(F)F)sc2N2CCOCC2)o1` [Example 383], below 400 nM; under `O=C1Nc2ccccc2C(c2ccccc2)=N[C@@H]1Nc1nnc(-c2cc(C3CC3)sc2N2CCOCC2)o1` [Example 384], below 400 nM.
For the compound `O=C1Nc2ccccc2C(c2ccccc2)=N[C@@H]1Nc1nnc(-c2nc(-c3ccc(F)cn3)sc2N2CCOCC2)o1` [Example 389], the 50% effective concentration (EC50) under setting [1] is below 400 nM.
On the same count and under the same terms, as for `O=C1Nc2ccccc2C(c2ccccc2)=N[C@@H]1Nc1nnc(-c2nc(-c3ccc(C(F)(F)F)nc3)sc2N2CCOCC2)o1` [Example 390], the figure is below 400 nM.
As for `COC[C@H]1C[C@@H]1c1sc(C(F)(F)F)nc1-c1nnc(N[C@H]2N=C(c3ccccc3)c3ccccc3NC2=O)o1` [Example 395], the concentration giving a half-maximal response (EC50) under setting [2] is above 800 nM.
Regarding `COCCCc1sc(C(F)(F)F)nc1-c1nnc(N[C@H]2N=C(c3ccccc3)c3ccccc3NC2=O)o1` [Example 396], the half-maximal effective concentration (EC50) under setting [1] is above 800 nM.
For `Cn1cc(-c2nc(-c3nnc(N[C@H]4N=C(c5ccccc5)c5ccccc5NC4=O)o3)c(N3CCOCC3)s2)cn1` [Example 399], the half-maximal effective concentration (EC50) under setting [1] was below 400 nM.
Regarding `O=C1Nc2ccccc2C(c2ccccc2)=NC1Nc1nnc(-c2nc(Br)sc2N2CCOCC2)o1` (stereo not shown) [Example 400], the EC50 under setting [1] is below 400 nM.
`CCn1cc(-c2nnc(N[C@H]3N=C(c4ccccc4)c4ccccc4NC3=O)o2)c(N2CCOCC2)n1` [Example 401]: under setting [1], the EC50 is below 400 nM.
On to `COCCn1cc(-c2nnc(N[C@H]3N=C(c4ccccc4)c4ccccc4NC3=O)o2)c(N2CCOCC2)n1` [Example 402], for which the 50% effective concentration (EC50) under setting [1] is below 400 nM.
With `O=C1Nc2ccccc2C(c2ccccc2)=N[C@@H]1Nc1nnc(-c2oc3ncccc3c2N2CCOCC2)o1` [Example 404], the 50% effective concentration (EC50) under setting [1] was below 400 nM.
Still for that read-out and setting: under `O=C1Nc2ccccc2C(c2ccccc2)=N[C@@H]1Nc1nnc(-c2nc(C3CCCCC3)sc2N2CCOCC2)o1` [Example 405] stands below 400 nM.
On to `C#Cc1nc(-c2nnc(N[C@H]3N=C(c4ccccc4)c4ccccc4NC3=O)o2)c(N2CCOCC2)s1` [Example 406], for which, under setting [1], the EC50 was below 400 nM.
Same read-out and setting: as for `COc1ccc2nccc(-c3nnc(N[C@H]4N=C(c5ccccc5)c5ccccc5NC4=O)o3)c2c1` [Example 408], the figure is above 800 nM; as for `COCc1ccc2nccc(-c3nnc(N[C@H]4N=C(c5ccccc5)c5ccccc5NC4=O)o3)c2c1` [Example 409], above 800 nM; as for `COc1ccn2ncc(-c3nnc(N[C@H]4N=C(c5ccccc5)c5ccccc5NC4=O)o3)c2c1` [Example 410], above 800 nM.
Take `COCCc1cccn2ncc(-c3nnc(N[C@H]4N=C(c5ccccc5)c5ccccc5NC4=O)o3)c12` [Example 411]: the concentration for a half-maximal effect (EC50) under setting [1] was above 800 nM.
Take `COCCCc1cc(C(F)(F)F)cnc1-c1nnc(N[C@H]2N=C(c3ccccc3)c3ccccc3NC2=O)o1` [Example 413]: under setting [2], the concentration giving a half-maximal response (EC50) is above 800 nM.
In the case of `COCC(C)(C)Nc1cc(C(F)(F)F)cnc1-c1nnc(N[C@H]2N=C(c3ccccc3)c3ccccc3NC2=O)o1` [Example 414], the EC50 under setting [1] was above 800 nM.
Consider `COCC1(Nc2cc(C(F)(F)F)cnc2-c2nnc(N[C@H]3N=C(c4ccccc4)c4ccccc4NC3=O)o2)CC1` [Example 415], for which the concentration giving a half-maximal response (EC50) under setting [1] is above 800 nM.
Take `COC(C)(C)CNc1cc(C(F)(F)F)cnc1-c1nnc(N[C@H]2N=C(c3ccccc3)c3ccccc3NC2=O)o1` [Example 416]: the EC50 under setting [1] was above 800 nM.
For `O=C1Nc2ccccc2C(c2ccccc2)=N[C@@H]1Nc1nnc(-c2ncc(C(F)(F)F)cc2N[C@H]2CC[C@H]2O)o1` [Example 417], under setting [2], the 50% effective concentration (EC50) was above 800 nM.
Take `O=C1Nc2ccccc2C(c2ccccc2)=N[C@@H]1Nc1nnc(-c2ncc(C(F)(F)F)cc2N[C@@H]2CC[C@@H]2O)o1` [Example 418]: the EC50 under setting [2] is above 800 nM.
`O=C1Nc2ccccc2C(c2ccccc2)=N[C@@H]1Nc1nnc(-c2ncc(C(F)(F)F)cc2NC[C@@H]2CCCO2)o1` [Example 419]: the half-maximal effective concentration (EC50) under setting [1] was in the range of 400 to 800 nM.
`O=C1Nc2ccccc2C(c2ccccc2)=N[C@@H]1Nc1nnc(-c2ncc(C(F)(F)F)cc2NC[C@H]2CCCO2)o1` [Example 420]: the concentration for a half-maximal effect (EC50) under setting [1] was below 400 nM.
Take `O=C1Nc2ccccc2C(c2ccccc2)=N[C@@H]1Nc1nnc(-c2ncc(C(F)(F)F)cc2NCc2ccco2)o1` [Example 421]: under setting [1], the EC50 is above 800 nM.
`O=C1Nc2ccccc2C(c2ccccc2)=N[C@@H]1Nc1nnc(-c2ncc(C(F)(F)F)cc2N[C@H]2CCC[C@H]2O)o1` [Example 422]: the EC50 under setting [1] lay in the range of 400 to 800 nM.
Consider `O=C1Nc2ccccc2C(c2ccccc2)=N[C@@H]1Nc1nnc(-c2ncc(C(F)(F)F)cc2N[C@@H]2CCC[C@@H]2O)o1` [Example 423], for which, under setting [1], the EC50 was 400 to 800 nM.
Still for that read-out and setting: as for `CC1(Nc2cc(C(F)(F)F)cnc2-c2nnc(N[C@H]3N=C(c4ccccc4)c4ccccc4NC3=O)o2)CCOC1` (stereo partly shown) [Example 424], the figure is above 800 nM; as for `O=C1Nc2ccccc2C(c2ccccc2)=N[C@@H]1Nc1nnc(-c2cn(-c3cccnc3)nc2N2CCOCC2)o1` [Example 425], below 400 nM.
